Results taken from patent US7189750B2, “Thiazole-based nitric oxide donors having at least two thiazole moieties and uses thereof” (priority 2004, dated 2007).
Entries after “also recorded” stand apart in the source; their conditions may differ.

Assays:
[1] = test system: anesthetized hypertensive Sprague-Dawley male rats; experiment: Hypotensive effects: mean arterial pressure after iv bolus in phenylephrine-treated rats; assay type: in vivo; details: rat
Protocol: Mean arterial pressure (MAP) was monitored and determined during bolus infusion of Pet-2, Pet-3, Pet-7, Pet-8, Pet-12 and Pet-13. Briefly, polyethylene catheters (PE50) were inserted into the carotid artery and into the jugular vein of anesthetized hypertensive Sprague-Dawley male rats (200–300 grams). A blood pressure recorder was placed within the carotid artery. Phenylephrine (0.1 mg) was then injected and the mean arterial blood pressure (MABP) was monitored continuously until a stable baseline was reached. The hypotensive effects of intravenous (iv) bolus doses (0.1 mg of each tested compound) administered intravenously at the jugular vein in minimal volume of vehicle (0.2 ml per dose) were evaluated. Five minutes were allowed between each dose, during which the maximal decrease in MAP was recorded and a dose-response graph comparing the hypotensive effect of the compounds was constructed.

Male Sprague Dawley rats = experiment: Induction of in vivo nitrate tolerance: cGMP in aorta of rats infused with the compound; set-up: species or system rat; details: for level of cGMP following a repeated treatment in vivo: aorta of rats pre-treated in vivo, re-exposed to 1 μM; for in vivo tolerance induction: cGMP in aorta of rats pre-treated in vivo with the compound, 200 μg/hour for 16 hours
Protocol: For c-GMP levels and tolerance development, the rat's thoracic aorta was isolated after exposure to the tested compound in vivo, and measured as described above in the in vitro assays.
Male Sprague Dawley rats (220 to 250 grams) were housed under constant temperature and humidity conditions. Light was maintained at a 12/12 light dark cycle. Except for 12 hours before the experiment, when food fasting was initiated, all rats had free access to standard rat pellet diet and tap water. The animals were anesthetized by intraperitoneal injection of ketamine and xylazine combination (50 and 10 milligram per kilogram, respectively). […] The catheters were filled with normal saline solution containing 1000 IU/ml of heparin and plugged with a metal pin. Catheters were externalized to the back of the neck region and secured by a polyester felt disk.
After implantation, the rats were individually housed until they regained their preoperative weight and appeared healthy (3 to 4 days post-operation). At this time point (day 0), an osmotic mini-pump (Alza Corp., Palo Alto, Calif.) delivering constant volume (10 μl/hour) of vehicle or drug was connected to one of the intravenous catheters.
For inducing tolerance to the tested NO-donor according to the present invention, the animals received 200 μg/hour of the tested compound for 16 hours (short-term-induced tolerance). A similar number of animals were processed by the same surgical procedure and received the vehicle alone (10 μl/hour of a solution consisting of 30% ethanol and 30% propylene glycol in sterile distilled water for injection).
At the end of the infusion periods used for the development of tolerance (16 hour), the rats were anesthetized as described above, the two catheters were externalized and the delivering catheters were disconnected from the mini-pump. The abdomen was opened by midline incision and the thoracic aorta were isolated, washed and cleaned from the surrounding tissues. Strips of the treated aortas were pooled in chambers containing Krebs-Hanseliet buffer (10 ml), and exposed to 1 μM of the tested NO-donor (final concentration) for 120 seconds. The tissues were quickly collected and frozen in liquid nitrogen for cGMP measurement, described hereinabove.

isolated rat aorta [2] = experiment: In vitro vasorelaxation of epinephrine-contracted rat aortic rings (CCRC); assay type: cell-based
From the text: Male Sprague Dawley rats were anaesthetized using intraperitoneal injection of ketamine and xylazine (50 and 10 milligram per kilogram, respectively) and the thoracic aorta, the large upper portion of the descending aorta, starting at the caudal border of the chest bone, was removed thereafter, while carefully removing the paraadventetial tissue surrounding the vessel. Aortae were cut into rings of 4–5 millimeters and mounted onto the tissue path. The path buffer (Krebs-bicrbonate) was constantly gassed with carbogen and maintained at 37° C. The rings were preloaded under 2 g tension and equilibrated for 90 minutes, while refreshing the buffer every 15 minutes. After stabilization, the rings were contracted with epinephrine (1 μM). Cumulative Concentration-Response Curves (CCRC) were measured for the vasorelaxing effect induced by adding various concentrations, ranging from 10^−10 M to 10^−5 M of Pet-2, Pet-3, Pet-7, Pet-8, Pet-12, Pet-24, Pet-43, Pet-59, Pet-147, Pet-152 and Pet-154, and glyceryltrinitrate (GTN), according to the procedure described in Feelich et al., Molecular Pharmacology, 56:243–253 (1999). The vehicle, which was used for this experiment was water:ethanol:propyleneglycol at proportional ratio of 1:1:1.
The vasorelaxing effect of the thiazole-derived NO-donors according to the present invention was measured on slices of thoracic aorta of rats contracted with epinephrine, as described hereinabove.

isolated rat aorta [3] = experiment: In vitro induction of tolerance and cross-tolerance: vasorelaxation of pre-exposed rat aortic rings; assay type: cell-based; details: for EC50: Rattus norvegicus; for tolerance induction in vitro: rings pre-treated with epinephrine and then with the same compound (0.44 mM)
Protocol: Aortic rings were prepared as described hereinabove, and were exposed to 0.44 mM GTN (vehicle was water:ethanol:propyleneglycol at proportional ratio of 1:1:1) for 1 hour before CCRC construction, to thereby induce tolerance to nitroglycerine. At the end of the tolerance induction period, rings were thrice washed with the path buffer (Krebs-bicrbonate) every 15 minutes for the following hour and then CCRC for vasorelaxation on GTN-induced tolerance rings were constructed for GTN (pretreated versus untreated rings, FIG. 15), in order to verify the ability to induce and measure GTN tolerance induction in vitro
Attempted induction of tolerance to the NO-donating compounds of the present invention was performed under the same conditions as for GTN. Thus, in an exemplary experiment, rings were exposed to 0.44 mM solution of Pet-3 in the attempt to induce tolerance for Pet-3. CCRC were then measured for the vasorelaxing effect of Pet-3 on a group of rings which were pre-exposed to Pet-3 as to induce tolerance to Pet-3, and for an untreated control group. The above protocol was repeated with Pet-2, Pet-7, Pet-8, Pet-12, Pet-24, Pet-43, Pet-149 and Pet-152.
Cross-tolerance studies were conducted using the same technique described above for measuring vasorelaxation of aortic rings from rats. Two groups of aortic rings samples were pre-treated with GTN, then one group was measured for vasorelaxation by GTN and the second group for vasorelaxation by Pet-12, an exemplary NO-donor according to the present invention. For the opposite cross-tolerance studies, two groups of aortic rings samples were pre-treated with Pet-12, then one group was measured for vasorelaxation by GTN and the second group for vasorelaxation by Pet-12.

[4] = test system: c-GMP in slices of thoracic aorta of rats; experiment: Cyclic-GMP measurement in aortic rat tissue (radioimmunoassay); assay type: cell-based; details: rat aorta; for cGMP Post-infusion: post-infusion (repeated treatment)
Protocol: GTN (10^−6 M) was added to the chamber and, 1 minute after exposure to the drug, rings (usually 3–5) were taken, wrapped with aluminum foil and immediately frozen in liquid nitrogen for storage. Control sample group was treated with the vehicle solution only. At the time of analysis, rings were thawed, blotted over a dry gauzed and weighted. A known weight of tissue was homogenized in 2 ml ice-cold modified Hank's balanced salt solution containing (in gram/liter) NaCl 8; KCl 0.4; glucose 1; KH2PO4 0.06; Na2HPO4 0.047; Phenol red 0.017 and further containing 25 mM EDTA (disodium salt). The homogenate was centrifuged at 4000 g (force units) for 10 minutes at 2–4° C. and the supernatant was thereafter transferred into fresh pre-cooled test tube containing 1 ml of acetonitrile. The tubes were vortex mixed for a few seconds and subsequently centrifuged at 4000 g for 5 minutes at 2–4° C., to remove the precipitated protein. Each supernatant was transferred into a clean test tube and evaporated to dryness under a stream of nitrogen at 55° C. The dry residue was reconstituted with 10 volumes of Tris-EDTA buffer pH 7.5 (0.05 M Tris containing 4 mM EDTA). Aliquots of 100 μl of the reconstituted solution in duplicate were used for c-GMP measurements using Amersham RIA kit, as is described in Haj-Yehia & Benet [Pharmacology, 1995, 273, 1, pp. 94–100]. Standard curves were plotted with six concentrations (0, 0.5, 1, 2, 4 and 8 pmoles of c-GMP per tube).
The NO-tolerance effect of GTN and NO-donor compounds according to the present invention was measured by following the production of c-GMP in slices of thoracic aorta of rats. Thus, the production of c-GMP was measured as described in the methods section above for the reference NO-donor compound GTN, and for the NO-donors of the present invention Pet-2, Pet-3, Pet-7, Pet-8, Pet-10, Pet-12, Pet-24, Pet-59, Pet-147, Pet-149, Pet-152, Pet-154 and Pet-155.

[5] = vasorelaxation, rat aortic rings contracted with 1 μM epinephrine, 10^−10 M to 10^−5 M, read-out: Concentration
[6] = vasorelaxation, rat aortic rings contracted with 1 μM epinephrine, given as negative log value, read-out: EC50 (converted)
[7] = vasorelaxation of rings pre-exposed to 0.44 mM of the same compound for 1 hour, given as negative log value, read-out: EC50 (converted)
[8] = vasorelaxation of rings pre-exposed to 0.44 mM of the same compound for 1 hour, read-out: Concentration

Compound | hypotensive effect on MAP following successive administrations [1] | level of cGMP following a repeated treatment in vivo (Male Sprague Dawley rats) | in vivo tolerance induction (Male Sprague Dawley rats) | EC50 (isolated rat aorta [2]; [5]) | EC50 (isolated rat aorta [2]; [6]) | EC50 (isolated rat aorta [3]; [7]) | EC50 (isolated rat aorta [3]; [8]) | tolerance induction in vitro (isolated rat aorta [3]) | c-GMP level following a repeated treatment [4] | cGMP Post-infusion [4] | cGMP Pre-infusion [4] | EC50 (isolated rat aorta [2]; Rattus norvegicus) | EC50 (isolated rat aorta [2]; Rattus norvegicus, read-out: Concentration) | vasorelaxation effect as compared with glyceryltrinitrate (isolated rat aorta [2]; isolated rat aorta, 1 μM epinephrine) | EC50 (isolated rat aorta [3]; 1 h) | EC50 (isolated rat aorta [3]; 1 h, read-out: Concentration) | vasorelaxation in rings pre-treated with GTN (cross-tolerance, words) (isolated rat aorta [3]; rings made tolerant to GTN) | tolerance after pre-treatment with Pet-12, to itself and to GTN (isolated rat aorta [3]; rings pre-treated with Pet-12)
O=[N+]([O-])OCC(CO[N+](=O)[O-])O[N+](=O)[O-] [GTN, glyceryl trinitrate, reference compound] | attenuation | decreased | tolerance inducing effect | 44.7 nM | 28.2 nM | 31.6 nM | 44.7 nM | tolerance induced | significantly reduced | 45 ± 12 pmol/g tissue | 127 ± 11 pmol/g tissue |  |  |  |  |  |  | 
CCc1nc(C)c(CCO[N+](=O)[O-])s1 [Pet-2, 2-Ethyl-4-methyl-5-(2-nitrooxy-ethyl)-thiazole] |  | remained substantially unchanged | absence of tolerance induction; also recorded: absence of tolerance effect |  |  |  |  |  |  | 140 ± 13 pmol/g tissue | 143 ± 13 pmol/g tissue | 25.1 nM | 25.1 nM | superior | 39.8 nM | 39.8 nM |  | 
Cc1nc(-c2cccnc2)sc1CCO[N+](=O)[O-] [Pet-12, 3-[4-Methyl-5-(2-nitrooxy-ethyl)-thiazole-2-yl]-pyridine] |  |  | absence of tolerance induction; also recorded: absence of tolerance effect; also recorded: lack of tolerance induction | 39.8 nM | 39.8 nM | 63.1 nM | 63.1 nM | absence of tolerance induction |  | 112 ± 12 pmol/g tissue | 127 ± 11 pmol/g tissue |  |  |  |  |  | absence of tolerance induction effect; also recorded: no effect | absence of tolerance induction effect; also recorded: does not evoke tolerance
